# Measurements from ChEMBL document CHEMBL1145942, “Three-dimensional quantitative structure-activity relationship analyses of peptide substrates of the mammalian H+/peptide cotransporter PEPT1” (J Med Chem, 2003).
# Where a SMILES comes first, the peptide text is derived from it. [ ]: non-standard residue; d: D form. The star is where a group is joined. Bip = N[C@@H](Cc1ccc(-c2ccccc2)cc1)C(=O)O; Pip = O=C(O)[C@@H]1CCCCN1; NMeA = CN[C@@H](C)C(=O)O; Nle = CCCC[C@H](N)C(=O)O; Orn = NCCC[C@H](N)C(=O)O; Abu = CC[C@H](N)C(=O)O; Cbz = O=C(OCc1ccccc1)*; Boc = CC(C)(C)OC(=O)*; Aib = CC(C)(N)C(=O)O; Sar = CNCC(=O)O
# Target: T1, Solute carrier family 15 member 1 (Homo sapiens, UniProt P46059)
# T1 sequence (P46059 whole entry): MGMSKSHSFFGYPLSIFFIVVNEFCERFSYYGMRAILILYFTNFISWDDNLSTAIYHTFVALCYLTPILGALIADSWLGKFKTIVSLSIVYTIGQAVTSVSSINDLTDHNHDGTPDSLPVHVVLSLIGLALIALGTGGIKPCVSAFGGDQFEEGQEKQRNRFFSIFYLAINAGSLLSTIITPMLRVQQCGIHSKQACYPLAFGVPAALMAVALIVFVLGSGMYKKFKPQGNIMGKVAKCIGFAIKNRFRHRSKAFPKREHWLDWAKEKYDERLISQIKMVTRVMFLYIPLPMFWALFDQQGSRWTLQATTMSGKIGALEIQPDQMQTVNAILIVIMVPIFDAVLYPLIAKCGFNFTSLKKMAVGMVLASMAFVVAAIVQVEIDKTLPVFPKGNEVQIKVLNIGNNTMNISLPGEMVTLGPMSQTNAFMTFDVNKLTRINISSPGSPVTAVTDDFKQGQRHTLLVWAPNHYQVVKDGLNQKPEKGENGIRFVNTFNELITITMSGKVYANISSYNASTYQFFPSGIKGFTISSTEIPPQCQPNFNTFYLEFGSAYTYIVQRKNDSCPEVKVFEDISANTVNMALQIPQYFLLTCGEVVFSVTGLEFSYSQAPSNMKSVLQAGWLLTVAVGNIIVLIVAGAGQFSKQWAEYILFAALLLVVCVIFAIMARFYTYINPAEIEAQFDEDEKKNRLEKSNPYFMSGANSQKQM
# Test: Inhibition constant (Ki) for human intestinal peptide carrier
row,Compound,Ki
1,CC(N)C(=O)Nc1ccccc1-c1ccccc1 (configuration not stated),16600 µM
2,CC(N)C(=O)N1CCCCC1 (configuration not stated),12900 µM
3,CC(N)C(=O)N1CCSC1 (configuration not stated),11000 µM
4,CC(N)C(=O)Nc1ccccc1 (configuration not stated),2900 µM
5,CC1NC(=O)C(CCCN)NC1=O (configuration not stated),2300 µM
6,CC(N)C(=O)Nc1ccccc1Cl (configuration not stated),7800 µM
7,COC(=O)c1cccc(NC(=O)C(C)N)c1 (configuration not stated),6900 µM
8,Cc1ccc(NC(=O)C(C)N)cc1 (configuration not stated),340 µM
9,Cc1cccc(NC(=O)C(C)N)c1 (configuration not stated),410 µM
10,CC(N)C(=O)Nc1ccc(Cl)cc1 (configuration not stated),330 µM
11,CC1NC(=O)C(CCCCN)NC1=O (configuration not stated),5400 µM
12,COC(=O)c1ccccc1NC(=O)C(C)N (configuration not stated),890 µM
13,CC(N)C(=O)Nc1c(F)c(F)c(F)c(F)c1F (configuration not stated),3100 µM
14,CC(N)C(=O)Nc1cccc(Cl)c1 (configuration not stated),460 µM
15,CC(N)C(=O)NC1CCCCC1 (configuration not stated),1500 µM
16,CC(C)CC(NC(=O)C(O)C(N)Cc1ccccc1)C(=O)O (configuration not stated),400 µM
17,CC(N)C(=O)Nc1cccc(-c2ccccc2)c1 (configuration not stated),290 µM
18,COC(=O)c1ccc(NC(=O)C(C)N)cc1 (configuration not stated),1100 µM
19,CC(N)C(=O)Nc1cccc(C(=O)O)c1 (configuration not stated),310 µM
20,NCCC(=O)NCCC(=O)O,> 30000 µM
21,CC(NC(=O)CCN)C(=O)O (configuration not stated),4800 µM
22,CC(N)C(=O)NCCS(=O)(=O)O (configuration not stated),1200 µM
23,CC(NC(=O)C(N)Cc1ccc(OCc2ccccc2)cc1)C(=O)O (configuration not stated),10 µM
24,CC(N)C(=O)Nc1ccc(C(=O)O)cc1 (configuration not stated),9100 µM
25,NCCC(=O)NCC(=O)O,7300 µM
26,CC(N)C(=O)Nc1ccccc1C(=O)O (configuration not stated),2800 µM

row,Compound,Ki
1,CC(N)C(=O)NCCC(=O)O (configuration not stated),2700 µM
2,CC(NC(=O)[C@H](N)Cc1ccc(OCc2ccccc2)cc1)C(=O)O (some centres not stated),1400 µM
3,C[C@H](NC(=O)[C@@H](N)Cc1ccc(Cc2ccccc2)cc1)C(=O)O,20 µM
4,C[C@H](N)C(=O)N[C@@H](Cc1ccc(Cc2ccccc2)cc1)C(=O)O,120 µM
5,N[C@@H](Cc1cc2ccccc2[nH]1)C(=O)N1CCC[C@H]1C(=O)O,130 µM
6,C[C@H](NC(=O)[C@@H](N)Cc1cc2ccccc2[nH]1)C(=O)O,160 µM
7,CN(CC(=O)O)C(=O)[C@@H](N)Cc1ccccc1,210 µM
8,C[C@@H](NC(=O)[C@@H](N)CC(=O)O)C(=O)OCc1ccccc1,8300 µM
9,C[C@H](NC(=O)[C@@H](N)Cc1ccc(O)cc1)C(=O)O,90 µM
10,CC(N)C(=O)NCc1ccccc1 (configuration not stated),14100 µM
11,CNCC(=O)N(C)CC(=O)O,32000 µM
12,CC(N)C(=S)N1CCCC1C(=O)O (configuration not stated),330 µM
13,CCC(C)C(N)C(=O)N1CCSC1 (configuration not stated),6300 µM
14,C[C@@H](N)C(=O)N1CCC[C@@H]1C(=O)O,> 30000 µM
15,N[C@@H](CS)C(=O)NCC(=O)O,200 µM
16,C[C@H](N)C(=O)N1CCC[C@H]1C(=O)O,150 µM
17,CC(N)C(=O)NC(C)C(=O)O (configuration not stated),120 µM
18,CC(C)C[C@H](NC(=O)CN)C(=O)O,160 µM
19,CC(NC(=O)CN)C(=O)O (configuration not stated),380 µM
20,CCC(C)C(N)C(=O)N1CCCCC1 (configuration not stated),5620 µM
21,CC(=O)N[C@@H](C)C(=O)N[C@@H](C)C(=O)O (Ac-Ala-Ala-OH),> 30000 µM
22,C[C@H](NC(=O)[C@H](C)NC(=O)OC(C)(C)C)C(=O)O (Boc-Ala-Ala-OH),> 30000 µM
23,C[C@H](NC(=O)[C@H](C)NC(=O)OCc1ccccc1)C(=O)O (Cbz-Ala-Ala-OH),5600 µM
24,C[C@H](N)C(=O)N[C@@H](CC(=O)O)C(=O)O (H-Ala-Asp-OH),260 µM
25,C[C@H](N)C(=O)N[C@@H](CCC(=O)O)C(=O)O (H-Ala-Glu-OH),320 µM
26,C[C@H](N)C(=O)NCC(=O)O (H-Ala-Gly-OH),140 µM

row,Compound,Ki
1,C[C@H](N)C(=O)N[C@@H](Cc1c[nH]cn1)C(=O)O (H-Ala-His-OH),330 µM
2,C[C@H](N)C(=O)N[C@@H](CO)C(=O)O (H-Ala-Ser-OH),140 µM
3,C[C@H](N)C(=O)N[C@@H](Cc1ccc(O)cc1)C(=O)O (H-Ala-Tyr-OH),150 µM
4,CC[C@H](NC(=O)[C@H](C)N)C(=O)O (H-Ala-[Abu]-OH),70 µM
5,C[C@H](N)C(=O)NC(C)(C)C(=O)O (H-Ala-[Aib]-OH),1200 µM
6,CCCC[C@H](NC(=O)[C@H](C)N)C(=O)O (H-Ala-[Nle]-OH),90 µM
7,C[C@H](N)C(=O)N[C@@H](CCCN)C(=O)O (H-Ala-[Orn]-OH),980 µM
8,C[C@H](N)C(=O)N1CCCC[C@H]1C(=O)O (H-Ala-[Pip]-OH),60 µM
9,C[C@H](N)C(=O)N(C)CC(=O)O (H-Ala-[Sar]-OH),250 µM
10,C[C@H](N)C(=O)N[C@H](C)C(=O)O (H-Ala-[dA]-OH),4200 µM
11,C[C@H](NC(=O)[C@@H](N)CC(=O)O)C(N)=O (H-Asp-Ala-NH2),5400 µM
12,C[C@H](NC(=O)[C@@H](N)CC(=O)O)C(=O)O (H-Asp-Ala-OH),320 µM
13,N[C@@H](CC(=O)O)C(=O)N[C@@H](CC(=O)O)C(=O)O (H-Asp-Asp-OH),410 µM
14,C[C@H](NC(=O)[C@@H](N)CCC(=O)O)C(=O)O (H-Glu-Ala-OH),250 µM
15,N[C@@H](CCC(=O)O)C(=O)N1CCC[C@H]1C(=O)O (H-Glu-Pro-OH),140 µM
16,NCC(=O)N[C@@H](CC(=O)O)C(=O)O (H-Gly-Asp-OH),350 µM
17,NCC(=O)NCC(=O)O (H-Gly-Gly-OH),1000 µM
18,NCC(=O)N[C@@H](Cc1c[nH]cn1)C(=O)O (H-Gly-His-OH),1000 µM
19,C[C@H](NC(=O)[C@@H](N)Cc1c[nH]cn1)C(=O)O (H-His-Ala-OH),480 µM
20,CC(C)C[C@H](N)C(=O)N1CCC[C@H]1C(=O)O (H-Leu-Pro-OH),110 µM
21,N[C@@H](Cc1ccccc1)C(=O)N[C@@H](Cc1ccccc1)C(=O)O (H-Phe-Phe-OH),110 µM
22,N[C@@H](Cc1ccccc1)C(=O)N1CCC[C@H]1C(=O)O (H-Phe-Pro-OH),130 µM
23,C[C@H](NC(=O)[C@@H]1CCCN1)C(=O)O (H-Pro-Ala-OH),9500 µM
24,O=C(O)CC[C@H](NC(=O)[C@@H]1CCCN1)C(=O)O (H-Pro-Glu-OH),20000 µM
25,O=C(O)CNC(=O)[C@@H]1CCCN1 (H-Pro-Gly-OH),22000 µM
26,CC(C)C[C@H](NC(=O)[C@@H]1CCCN1)C(=O)O (H-Pro-Leu-OH),470 µM

row,Compound,Ki
1,O=C(O)[C@H](Cc1ccccc1)NC(=O)[C@@H]1CCCN1 (H-Pro-Phe-OH),1900 µM
2,O=C(O)[C@H](CO)NC(=O)[C@@H]1CCCN1 (H-Pro-Ser-OH),14000 µM
3,O=C(O)[C@H](Cc1ccc(O)cc1)NC(=O)[C@@H]1CCCN1 (H-Pro-Tyr-OH),730 µM
4,C[C@H](NC(=O)[C@@H](N)CO)C(=O)O (H-Ser-Ala-OH),140 µM
5,N[C@@H](CO)C(=O)N1CCC[C@H]1C(=O)O (H-Ser-Pro-OH),130 µM
6,N[C@@H](Cc1ccc(O)cc1)C(=O)N[C@@H](Cc1ccccc1)C(=O)O (H-Tyr-Phe-OH),90 µM
7,N[C@@H](Cc1ccc(O)cc1)C(=O)N1CCC[C@H]1C(=O)O (H-Tyr-Pro-OH),160 µM
8,CC(C)[C@H](N)C(=O)N[C@@H](C)C(=O)O (H-Val-Ala-OH),90 µM
9,CC(C)[C@H](N)C(=O)N1CCC[C@H]1C(=O)O (H-Val-Pro-OH),60 µM
10,CC(C)[C@H](N)C(=O)N[C@@H](Cc1ccc(O)cc1)C(=O)O (H-Val-Tyr-OH),100 µM
11,C[C@H](NC(=O)[C@@H](N)Cc1ccc(-c2ccccc2)cc1)C(=O)O (H-[Bip]-Ala-OH),20 µM
12,CN[C@@H](C)C(=O)N[C@@H](C)C(=O)O (H-[NMeA]-Ala-OH),1800 µM
13,CCCC[C@H](N)C(=O)N[C@@H](C)C(=O)O (H-[Nle]-Ala-OH),140 µM
14,CCCC[C@H](N)C(=O)N1CCC[C@H]1C(=O)O (H-[Nle]-Pro-OH),160 µM
15,CNCC(=O)N1CCC[C@H]1C(=O)O (H-[Sar]-Pro-OH),1600 µM
16,C[C@H](NC(=O)[C@@H](C)N)C(=O)O (H-[dA]-Ala-OH),2000 µM
17,C[C@@H](N)C(=O)N[C@H](C)C(=O)O (H-[dA]-[dA]-OH),> 30000 µM
18,C[C@@H](N)C(=O)N1CCC[C@H]1C(=O)O (stereo in doubt; 56),4900 µM
19,C[C@@H](N)C(=O)N1CCC[C@H]1C(=O)O (stereo in doubt; 69),15100 µM
20,NCCCCC(=O)O [5-AMINOVALERIC ACID],17400 µM
21,NCC(=O)CCC(=O)O [AMINOLEVULINIC ACID],790 µM
22,NCC(=O)N1CCC[C@H]1C(=O)O [GLYCYL PROLINE] (H-Gly-Pro-OH),300 µM
23,CN(CC(=O)O)C(=O)CN [GLYCYLSARCOSINE] (H-Gly-[Sar]-OH),830 µM
24,CC(C)C[C@H](N)C(=O)N[C@@H](C)C(=O)O [LEU-ALA] (H-Leu-Ala-OH),120 µM
